Key:
Assay in all cases: relative viability (nuclei count vs DMSO), 5 days (fraction); higher = more cells survive
Vorinostat + Pictilisib = compound: O=C(CCCCCCC(=O)Nc1ccccc1)NO [Vorinostat] + CS(=O)(=O)N1CCN(Cc2cc3nc(-c4cccc5[nH]ncc45)nc(N4CCOCC4)c3s2)CC1 [Pictilisib] (partner 1 µM)
Procedure, shortened: (§1)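 One day after seeding in 1536-well plates, lung cancer cell lines were dosed by pin tool. Dosing was either single-drug or a fixed anchor-drug dose plus five library-drug doses (not always all listed) in √10 steps. After 5 days, nuclei were stained in one fix-and-stain step and counted on 4× images, and relative viability is the nuclei count of treated wells over that of vehicle wells, given as the median of duplicate plates.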

Vorinostat + Tozasertib = compound: O=C(CCCCCCC(=O)Nc1ccccc1)NO [Vorinostat] + Cc1cc(Nc2cc(N3CCN(C)CC3)nc(Sc3ccc(NC(=O)C4CC4)cc3)n2)n[nH]1 [Tozasertib] (partner 0.1 µM)
Procedure, shortened: as §1

Vorinostat + Foretinib = compound: O=C(CCCCCCC(=O)Nc1ccccc1)NO [Vorinostat] + COc1cc2c(Oc3ccc(NC(=O)C4(C(=O)Nc5ccc(F)cc5)CC4)cc3F)ccnc2cc1OCCCN1CCOCC1 [Foretinib] (partner 0.25 µM)
Procedure, shortened: as §1

Vorinostat + AZD7762 = compound: O=C(CCCCCCC(=O)Nc1ccccc1)NO [Vorinostat] + NC(=O)Nc1cc(-c2cccc(F)c2)sc1C(=O)N[C@H]1CCCNC1 [AZD7762] (partner 0.2 µM)
Procedure, shortened: as §1

Vorinostat + Linsitinib = compound: O=C(CCCCCCC(=O)Nc1ccccc1)NO [Vorinostat] + C[C@]1(O)C[C@@H](c2nc(-c3ccc4ccc(-c5ccccc5)nc4c3)c3c(N)nccn32)C1 [Linsitinib] (partner 1 µM)
Procedure, shortened: as §1

| Cell Line | relative viability (Vorinostat + Pictilisib; first compound 0.253 µM) | relative viability (Vorinostat + Pictilisib; first compound 0.8 µM) | relative viability (Vorinostat + Pictilisib; first compound 2.53 µM) | relative viability (Vorinostat + Pictilisib; first compound 8 µM) | relative viability (Vorinostat + Tozasertib; first compound 0.253 µM) | relative viability (Vorinostat + Tozasertib; first compound 0.8 µM) | relative viability (Vorinostat + Tozasertib; first compound 2.53 µM) | relative viability (Vorinostat + Tozasertib; first compound 8 µM) | relative viability (Vorinostat + Foretinib; first compound 0.253 µM) | relative viability (Vorinostat + Foretinib; first compound 0.8 µM) | relative viability (Vorinostat + Foretinib; first compound 2.53 µM) | relative viability (Vorinostat + Foretinib; first compound 8 µM) | relative viability (Vorinostat + AZD7762; first compound 0.253 µM) | relative viability (Vorinostat + AZD7762; first compound 0.8 µM) | relative viability (Vorinostat + AZD7762; first compound 2.53 µM) | relative viability (Vorinostat + AZD7762; first compound 8 µM) | relative viability (Vorinostat + Linsitinib; first compound 0.253 µM) | relative viability (Vorinostat + Linsitinib; first compound 0.8 µM) | relative viability (Vorinostat + Linsitinib; first compound 2.53 µM) | relative viability (Vorinostat + Linsitinib; first compound 8 µM) |
| --- | --- | --- | --- | --- | --- | --- | --- | --- | --- | --- | --- | --- | --- | --- | --- | --- | --- | --- | --- | --- |
| NCI-H596 | 0.355 | 0.357 | 0.316 | 0.277 | 0.839 | 0.819 | 0.378 | 0.183 | 0.847 | 0.715 | 0.53 | 0.22 | 1.13 | 0.732 | 0.543 | 0.384 | 1.02 | 1.04 | 0.677 | 0.335 |
| LCLC-97TM1 |  | 0.151 | 0.168 | 0.0934 | 0.19 | 0.158 | 0.159 | 0.149 | 1.06 | 0.957 | 0.394 | 0.153 | 0.129 | 0.256 | 0.205 | 0.0628 |  | 0.167 | 0.144 | 0.115 |
| NCI-H1993 | 0.911 | 0.919 | 0.801 | 0.589 | 0.633 | 0.608 | 0.489 | 0.457 | 0.84 | 0.801 | 0.747 | 0.494 | 0.817 | 0.672 | 0.384 | 0.312 | 0.836 | 0.861 | 0.575 | 0.614 |
| A-427 | 0.65 | 0.595 | 0.586 | 0.153 | 0.182 | 0.168 | 0.134 | 0.0919 | 1.21 | 1.13 | 0.561 | 0.191 | 0.67 | 0.459 | 0.239 | 0.156 | 1.11 | 1.08 | 0.875 | 0.17 |
| NCI-H1915 | 1.17 | 0.751 | 0.426 | 0.0969 | 0.426 | 0.267 | 0.118 | 0.104 | 1.14 | 1.05 | 0.474 | 0.137 | 0.692 | 0.673 | 0.377 | 0.102 | 1.12 | 1.03 | 0.587 | 0.113 |
| NCI-H23 | 0.599 | 0.391 | 0.181 | 0.161 | 0.275 | 0.269 | 0.105 | 0.124 | 1.05 | 0.724 | 0.336 | 0.129 | 0.174 | 0.13 | 0.0979 | 0.0915 | 0.866 | 0.711 | 0.21 | 0.124 |
| NCI-H727 | 0.458 | 0.455 | 0.243 | 0.188 | 0.545 | 0.56 | 0.315 | 0.362 | 0.855 | 0.821 | 0.378 | 0.329 | 0.514 | 0.874 | 0.617 | 0.398 | 0.236 | 0.351 | 0.15 | 0.289 |
| EPLC-272H | 0.309 | 0.227 | 0.212 | 0.145 | 0.289 | 0.249 | 0.189 | 0.149 | 0.581 | 0.512 | 0.0722 | 0.133 | 0.135 | 0.171 | 0.069 | 0.138 | 1.17 | 1.13 | 0.361 | 0.156 |
